Test results taken from the NIST ThermoML archive (doi:10.1007/s10765-017-2256-0).
Where “and” joins values, the source holds several entries; their conditions need not be identical. Equal values may be shown once.

Details: for mass density: 407.69 K, Fluid (supercritical or subcritical phases), Bellows volumetry

CC(C)C [2-methylpropane]
Details | mass density
3627.5 kPa | 203.1 kg/m3
3629.3 kPa | 205.78 kg/m3
3631.2 kPa | 208.58 kg/m3
3632.8 kPa | 211.59 kg/m3
3634 kPa | 214.88 kg/m3
3634.8 kPa | 218.47 kg/m3
3635.3 kPa | 222.42 kg/m3
3635.4 kPa | 223.5 kg/m3
3635.7 kPa | 225.57 kg/m3 and 226.64 kg/m3
3636.3 kPa | 228.77 kg/m3
3637 kPa | 230.86 kg/m3
3638.4 kPa | 235.26 kg/m3
3639.6 kPa | 239.96 kg/m3
3641.1 kPa | 244.93 kg/m3

Details | Critical temperature [K]
Liquid, Visual observation in a stirred cell | 407.69
